Data reported in patent US10428083B2, “Heterocyclylmethyl-thienouracile as antagonists of the adenosine-A2B-receptor” (BAYER PHARMA AKTIENGESELLSCHAFT, priority 2015, dated 2019).

The molecules below were run against human adenosine A2b receptor (Homo sapiens (Human), UniProt P29275) (assay: Cellular in vitro reporter gene test for A2b receptor activity (CHO-K1, CRE-luciferase, NECA stimulation)). Settings: recombinant CHO-K1 cell line, CRE-luciferase reporter, antagonism of EC50 concentration of NECA; in some cases means of several determinations, rounded to two significant figures; read-out: A2b receptor IC50.
Sequence of human adenosine A2b receptor (P29275 whole entry): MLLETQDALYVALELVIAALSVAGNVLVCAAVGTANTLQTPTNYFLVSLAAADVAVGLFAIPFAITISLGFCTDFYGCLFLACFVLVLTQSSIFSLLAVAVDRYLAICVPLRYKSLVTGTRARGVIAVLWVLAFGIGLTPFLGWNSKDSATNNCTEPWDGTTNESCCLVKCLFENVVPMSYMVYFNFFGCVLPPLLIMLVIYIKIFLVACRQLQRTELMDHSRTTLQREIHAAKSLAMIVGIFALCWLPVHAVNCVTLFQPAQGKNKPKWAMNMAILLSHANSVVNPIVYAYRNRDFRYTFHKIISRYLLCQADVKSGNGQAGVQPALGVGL
Assay type: cell-based
In short: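 CHO-K1 cells with CRE-driven luciferase; antagonists co-incubated with NECA at its EC50, determined in a pre-experiment on each test day. Luciferase read by luminescence 3 h after NECA addition.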

| IC50 [nM] | Structure (SMILES) |
| --- | --- |
| 9.9 | Cc1c(Cn2nc[nH]c2=O)sc2c1c(=O)n(C(C)C)c(=O)n2CCC(F)(F)F [Example 253, 3-Isopropyl-5-methyl-6-[(5-oxo-4,5-dihydro-1H-1,2,4-triazol-1-yl)methyl]-1-(3,3,3-trifluoropropyl)thieno[2,3-d]pyrimidine-2,4(1H,3H)-dione] |
| 3.4 | COC(=O)N=C1NCCN1Cc1sc2c(c1C)c(=O)n(C(C)C)c(=O)n2CCC(F)(F)F [Example 377, Methyl [1-{[3-isopropyl-5-methyl-2,4-dioxo-1-(3,3,3-trifluoropropyl)-1,2,3,4-tetrahydrothieno[2,3-d]pyrimidin-6-yl]methyl}imidazolidin-2-ylidene]carbamate] |
| 41 | Cc1c(CN2CCNC2=O)sc2c1c(=O)n(C(C)C)c(=O)n2CF [Example 313, 1-(Fluoromethyl)-3-isopropyl-5-methyl-6-[(2-oxoimidazolidin-1-yl)methyl]thieno[2,3-d]pyrimidine-2,4(1H,3H)-dione] |
| 27 | CCn1c(=O)c2c(C)c(CN3CCNC3=NC(=O)OC)sc2n(CC2CCO2)c1=O (single isomer, unassigned) [Example 372, Methyl [1-{[3-ethyl-5-methyl-1-(oxetan-2-ylmethyl)-2,4-dioxo-1,2,3,4-tetrahydrothieno[2,3-d]pyrimidin-6-yl]methyl}imidazolidin-2-ylidene]carbamate] |
| 7 | Cc1c(CN2CCNC2=O)sc2c1c(=O)n(C(C)C)c(=O)n2CC1CCO1 (single isomer, unassigned) [Example 184, 3-Isopropyl-5-methyl-1-(oxetan-2-ylmethyl)-6-[(2-oxoimidazolidin-1-yl)methyl]thieno[2,3-d]pyrimidine-2,4(1H,3H)-dione] |
| 11 | CCN1CCN(Cc2sc3c(c2C)c(=O)n(CCc2ccccc2)c(=O)n3CCOC)C1=O [Example 239, 6-[(3-Ethyl-2-oxoimidazolidin-1-yl)methyl]-1-(2-methoxyethyl)-5-methyl-3-(2-phenylethyl)thieno[2,3-d]pyrimidine-2,4(1H,3H)-dione] |
| 12 | CCn1c(=O)c2c(C)c(CN3CCNC3=S)sc2n(CCOC(C)C)c1=O [Example 33, 3-Ethyl-1-(2-isopropoxyethyl)-5-methyl-6-[(2-thioxoimidazolidin-1-yl)methyl]thieno[2,3-d]pyrimidine-2,4(1H,3H)-dione] |
| 4.4 | Cc1c(CN2CCNC2=O)sc2c1c(=O)n(CC(C)(C)C)c(=O)n2CCCF [Example 201, 3-(2,2-Dimethylpropyl)-1-(3-fluoropropyl)-5-methyl-6-[(2-oxoimidazolidin-1-yl)methyl]thieno[2,3-d]pyrimidine-2,4(1H,3H)-dione] |
| 170 | COCCn1c(=O)c2c(C)c(CN3CCNC3=NC#N)sc2n(CC2CCO2)c1=O (racemic) [Example 364, [1-{[3-(2-Methoxyethyl)-5-methyl-1-(oxetan-2-ylmethyl)-2,4-dioxo-1,2,3,4-tetrahydrothieno[2,3-d]pyrimidin-6-yl]methyl}imidazolidin-2-ylidene]cyanamide] |

Second part, the molecule before the results:

| Structure (SMILES) | IC50 [nM] |
| --- | --- |
| CCn1c(=O)c2c(C)c(CN3CCNC3=NC(=O)OC)sc2n(CC2CCCO2)c1=O (racemic) [Example 374, Methyl [1-{[3-ethyl-5-methyl-2,4-dioxo-1-(tetrahydrofuran-2-ylmethyl)-1,2,3,4-tetrahydrothieno[2,3-d]pyrimidin-6-yl]methyl}imidazolidin-2-ylidene]carbamate] | 7 |
| CCn1c(=O)c2c(C)c(CN3CCNC3=S)sc2n(CC2CCCCO2)c1=O (single isomer, unassigned) [Example 142, 3-Ethyl-5-methyl-1-(tetrahydro-2H-pyran-2-ylmethyl)-6-[(2-thioxoimidazolidin-1-yl)methyl]thieno[2,3-d]pyrimidine-2,4(1H,3H)-dione] | 13 |
| COCCn1c(=O)n(C(C)C)c(=O)c2c(C)c(CN3CCNC3=NC(=O)OC)sc21 [Example 378, Methyl [1-{[3-isopropyl-1-(2-methoxyethyl)-5-methyl-2,4-dioxo-1,2,3,4-tetrahydrothieno[2,3-d]pyrimidin-6-yl]methyl}imidazolidin-2-ylidene]carbamate] | 3.1 |
| CCn1c(=O)c2c(C)c(CN3CCNC3=O)sc2n(CC2CC2(F)F)c1=O (single isomer, unassigned; enantiomer 1) [Example 55, 1-[(2,2-Difluorocyclopropyl)methyl]-3-ethyl-5-methyl-6-[(2-oxoimidazolidin-1-yl)methyl]thieno[2,3-d]pyrimidine-2,4(1H,3H)-dione (Enantiomer 1)] | 1.3 |
| Cc1c(CN2CCNC(=O)C2=O)sc2c1c(=O)n(CC(F)(F)F)c(=O)n2CC1CCCO1 (single isomer, unassigned) [Example 489, 6-[(2,3-Dioxopiperazin-1-yl)methyl]-5-methyl-1-(tetrahydrofuran-2-ylmethyl)-3-(2,2,2-trifluoroethyl)thieno[2,3-d]pyrimidine-2,4(1H,3H)-dione] | 27 |
| Cc1c(CN2CCNC(=O)C2=O)sc2c1c(=O)n(C(C)C)c(=O)n2CC1CCCO1 (single isomer, unassigned) [Example 482, 6-[(2,3-Dioxopiperazin-1-yl)methyl]-3-isopropyl-5-methyl-1-(tetrahydrofuran-2-ylmethyl)thieno[2,3-d]pyrimidine-2,4(1H,3H)-dione] | 410 |
| COCCn1c(=O)n(CC(C)(C)C)c(=O)c2c(C)c(Cn3nc[nH]c3=O)sc21 [Example 428, 3-(2,2-Dimethylpropyl)-1-(2-methoxyethyl)-5-methyl-6-[(5-oxo-4,5-dihydro-1H-1,2,4-triazol-1-yl)methyl]thieno[2,3-d]pyrimidine-2,4(1H,3H)-dione] | 120 |
| Cc1c(CN2CCNC2=S)sc2c1c(=O)n(CC(C)C)c(=O)n2CC1CCO1 (racemic) [Example 146, 3-Isobutyl-5-methyl-1-(oxetan-2-ylmethyl)-6-[(2-thioxoimidazolidin-1-yl)methyl]thieno[2,3-d]pyrimidine-2,4(1H,3H)-dione] | 11 |
| CCOCCn1c(=O)n(CCOC)c(=O)c2c(C)c(CN3CCNC3=O)sc21 [Example 232, 1-(2-Ethoxyethyl)-3-(2-methoxyethyl)-5-methyl-6-[(2-oxoimidazolidin-1-yl)methyl]thieno[2,3-d]pyrimidine-2,4(1H,3H)-dione] | 93 |
| COCCn1c(=O)c2c(C)c(Cn3[nH]ccc3=O)sc2n(CC2CCCO2)c1=O (single isomer, unassigned) [Example 291, 3-(2-Methoxyethyl)-5-methyl-6-[(5-oxo-2,5-dihydro-1H-pyrazol-1-yl)methyl]-1-(tetrahydrofuran-2-ylmethyl)thieno[2,3-d]pyrimidine-2,4(1H,3H)-dione] | 190 |
| Cc1c(CN2CCNC2=S)sc2c1c(=O)n(CC(C)C)c(=O)n2CC(F)F [Example 143] | 3 |
| Cc1c(Cn2[nH]ccc2=O)sc2c1c(=O)n(C(C)C)c(=O)n2CCC(F)(F)F [Example 132, 3-Isopropyl-5-methyl-6-[(5-oxo-2,5-dihydro-1H-pyrazol-1-yl)methyl]-1-(3,3,3-trifluoropropyl)thieno[2,3-d]pyrimidine-2,4(1H,3H)-dione] | 20 |
| CCn1c(=O)c2c(C)c(CN3CCN(C(=O)OC(C)(C)C)S3(=O)=O)sc2n(CCC(F)(F)F)c1=O [Example 26, tert-Butyl 5-{[3-ethyl-5-methyl-2,4-dioxo-1-(3,3,3-trifluoropropyl)-1,2,3,4-tetrahydrothieno[2,3-d]pyrimidin-6-yl]methyl}-1,2,5-thiadiazolidine-2-carboxylate 1,1-dioxide] | 11 |
| CCn1c(=O)c2c(C)c(CN3Cc4ccccc4C3=O)sc2n(CCC(F)(F)F)c1=O [Example 11, 3-Ethyl-5-methyl-6-[(1-oxo-1,3-dihydro-2H-isoindol-2-yl)methyl]-1-(3,3,3-trifluoropropyl)thieno[2,3-d]pyrimidine-2,4(1H,3H)-dione] | 19 |
| Cc1c(CN2CCNC2=NC#N)sc2c1c(=O)n(CC(C)(C)C)c(=O)n2CC1CCCO1 (racemic) [Example 446, [1-{[3-(2,2-Dimethylpropyl)-5-methyl-2,4-dioxo-1-(tetrahydrofuran-2-ylmethyl)-1,2,3,4-tetrahydrothieno[2,3-d]pyrimidin-6-yl]methyl}imidazolidin-2-ylidene]cyanamide] | 19 |
| COCCn1c(=O)c2c(C)c(Cn3[nH]ccc3=O)sc2n(CC2CCCO2)c1=O (single isomer, unassigned) [Example 290, 3-(2-Methoxyethyl)-5-methyl-6-[(5-oxo-2,5-dihydro-1H-pyrazol-1-yl)methyl]-1-(tetrahydrofuran-2-ylmethyl)thieno[2,3-d]pyrimidine-2,4(1H,3H)-dione] | 400 |
| CCn1c(=O)c2c(C)c(C(C)N3CCNC3=O)sc2n(CCC(F)(F)F)c1=O (single isomer, unassigned) [Example 504, 3-Ethyl-5-methyl-6-[1-(2-oxoimidazolidin-1-yl)ethyl]-1-(3,3,3-trifluoropropyl)thieno[2,3-d]pyrimidine-2,4(1H,3H)-dione] | 2000 |
| Cc1c(CN2CCNC2=S)sc2c1c(=O)n(CC(F)(F)F)c(=O)n2CC1CCO1 (single isomer, unassigned) [Example 155, 5-Methyl-1-(oxetan-2-ylmethyl)-6-[(2-thioxoimidazolidin-1-yl)methyl]-3-(2,2,2-trifluoroethyl)thieno[2,3-d]pyrimidine-2,4(1H,3H)-dione] | 26 |
| CCn1c(=O)c2c(C)c(CN3CCNC3=O)sc2n(CC2CCOC2)c1=O (single isomer, unassigned; enantiomer 2) [Example 75, 3-Ethyl-5-methyl-6-[(2-oxoimidazolidin-1-yl)methyl]-1-(tetrahydrofuran-3-ylmethyl)thieno[2,3-d]pyrimidine-2,4(1H,3H)-dione (Enantiomer 2)] | 40 |
| [2H]C([2H])(c1sc2c(c1C)c(=O)n(CC(F)(F)F)c(=O)n2CCOC)N1CCNC1=NC#N [Example 513, [1-{[1-(2-Methoxyethyl)-5-methyl-2,4-dioxo-3-(2,2,2-trifluoroethyl)-1,2,3,4-tetrahydrothieno[2,3-d]pyrimidin-6-yl](dideutero)methyl}imidazolidin-2-ylidene]cyanamide] | 8.4 |
